Measurements taken from DBAASP.
≈ marks a conversion by molar mass, not a printed value.

Experiments:
Test in all cases: ≥ marks a high value that may be exact or a test limit, other limits are often not marked, values filed in µg/mL are converted to µM
Escherichia coli 55B5 = tested on: Escherichia coli 55B5
Salmonella typhimurium = tested on: Salmonella typhimurium
Pseudomonas aeruginosa = tested on: Pseudomonas aeruginosa
Escherichia coli UB1005 = tested on: Escherichia coli UB1005
[1] = tested on: Staphylococcus aureus SAP 0017
Escherichia coli DC2 = tested on: Escherichia coli DC2
[2] = tested on: Pseudomonas aeruginosa H188
[3] = tested on: Staphylococcus aureus ATCC 25923
[4] = tested on: Staphylococcus epidermidis C621
[5] = tested on: Salmonella typhimurium C587
[6] = tested on: Salmonella typhimurium C610
Bacillus subtilis C971 = tested on: Bacillus subtilis C971
[7] = tested on: Corynebacterium xerosis C875
[8] = tested on: Pseudomonas aeruginosa H187
[9] = tested on: Enterococcus faecalis C625
[10] = tested on: Salmonella enterica serovar Typhimurium
[11] = tested on: Pseudomonas aeruginosa R70
[12] = tested on: Pseudomonas aeruginosa M917
Candida albicans = tested on: Candida albicans
[13] = tested on: Pseudomonas aeruginosa M1426
[14] = tested on: Pseudomonas aeruginosa M76
Staphylococcus aureus = tested on: Staphylococcus aureus
[15] = tested on: Pseudomonas aeruginosa PAO1
[16] = tested on: Stenotrophomonas maltophilia
Ralstonia pickettii = tested on: Ralstonia pickettii
Pseudomonas fluorescens = tested on: Pseudomonas fluorescens
[17] = tested on: Pseudomonas aeruginosa M1251
[18] = tested on: Achromobacter xylosoxidans
[19] = tested on: Escherichia coli KCCM 11569
[20] = tested on: Bacillus subtilis KCCM 11495
[21] = tested on: Staphylococcus aureus ATCC 6538
[22] = tested on: Pseudomonas aeruginosa ATCC 9027

CC[C@H](C)[C@H](NC(=O)[C@H](C)N)C(=O)N[C@@H](Cc1cnc[nH]1)C(=O)N[C@@H](CCCCN)C(=O)N[C@@H](CC(C)C)C(=O)N[C@@H](C)C(=O)N[C@@H](Cc1cnc[nH]1)C(=O)N[C@@H](CCCCN)C(=O)N[C@H](C(=O)N[C@@H](CC(C)C)C(=O)N[C@@H](CCCCN)C(=O)N[C@@H](CCCCN)C(=O)N[C@H](C(=O)N[C@@H](CC(C)C)C(=O)N[C@@H](CCCN=C(N)N)C(=O)N[C@@H](C)C(=O)N[C@H](C(=O)N[C@@H](CCCCN)C(=O)N[C@@H](CCCCN)C(=O)N[C@@H](CC(C)C)C(=O)N[C@@H](C)C(=O)N[C@@H](CC(N)=O)C(=O)O)C(C)C)[C@@H](C)O)[C@@H](C)O [AIHKLAHKTLKKTLRAVKKLAN]
MIC (Escherichia coli 55B5): 14.5 µM (≈ 36 µg/mL) | MIC (Salmonella typhimurium): 10.5 µM (≈ 26.1 µg/mL) | MIC (Pseudomonas aeruginosa): 12.5 µM (≈ 31 µg/mL) | MIC (Escherichia coli UB1005): 15.5 µM (≈ 38.5 µg/mL)

CC[C@H](C)[C@H](NC(=O)[C@H](C)NC(=O)[C@H](CCCCN)NC(=O)[C@H](CC(C)C)NC(=O)[C@H](C)NC(=O)[C@@H](NC(=O)[C@H](Cc1cnc[nH]1)NC(=O)[C@H](CC(C)C)NC(=O)[C@@H](NC(=O)[C@@H](NC(=O)[C@H](CCCCN)NC(=O)[C@@H](NC(=O)[C@H](C)NC(=O)[C@@H](NC(=O)[C@H](CCCCN)NC(=O)[C@H](Cc1ccccc1)NC(=O)[C@@H](NC(=O)[C@H](CCCCN)NC(=O)[C@H](CC(C)C)NC(=O)[C@H](Cc1ccccc1)NC(=O)[C@H](CO)NC(=O)[C@H](CCCCN)NC(=O)[C@H](Cc1c[nH]c2ccccc12)NC(=O)[C@H](CCCCN)NC(C)=O)[C@@H](C)O)C(C)C)C(C)C)[C@@H](C)O)C(C)C)[C@@H](C)O)C(=O)N[C@@H](CO)C(=O)N[C@@H](CO)C(N)=O [KWKSFLKTFKVAVKTVLHTALKAISS]
MIC [1]: 4.33 µM (≈ 12.9 µg/mL) | MIC (Escherichia coli DC2): 1.36 µM (≈ 4.06 µg/mL) | MIC [2]: 6.89 µM (≈ 20.5 µg/mL) | MIC [3]: 5.46 µM (≈ 16.2 µg/mL) | MIC [4]: 2.73 µM (≈ 8.11 µg/mL) | MIC [5]: 10.9 µM (≈ 32.4 µg/mL) | MIC [6]: 1.71 µM (≈ 5.07 µg/mL) | MIC (Escherichia coli UB1005): 2.18 µM (≈ 6.49 µg/mL) | MIC (Bacillus subtilis C971): 0.853 µM (≈ 2.54 µg/mL) | MIC [7]: 0.443 µM (≈ 1.32 µg/mL) | MIC [8]: 3.44 µM (≈ 10.2 µg/mL) | MIC [9]: 6.89 µM (≈ 20.5 µg/mL)

CC(C)C[C@H](NC(=O)[C@H](C)NC(=O)[C@H](CCCCN)NC(=O)[C@H](CCCCN)NC(=O)[C@H](CC(C)C)NC(=O)[C@H](C)NC(=O)[C@H](CCCCN)NC(=O)[C@H](CCCCN)NC(=O)[C@H](CC(C)C)NC(=O)[C@H](CCCCN)NC(=O)[C@H](CCCCN)NC(=O)[C@H](CC(C)C)NC(=O)[C@H](C)NC(=O)[C@H](CCCCN)NC(=O)[C@H](CC(C)C)NC(=O)[C@H](C)NC(=O)[C@@H](N)Cc1ccccc1)C(N)=O [FALKALKKLKKALKKAL]
MIC [10]: 4.18 µM (≈ 8 µg/mL) | MIC [11]: 2.09 µM (≈ 4 µg/mL) | MIC [12]: 8.37 µM (≈ 16 µg/mL) | MIC (Candida albicans): 8.37 µM (≈ 16 µg/mL) | MIC (Pseudomonas aeruginosa): 4.18 µM (≈ 8 µg/mL) | MIC [13]: 8.37 µM (≈ 16 µg/mL) | MIC [14]: 8.37 µM (≈ 16 µg/mL) | MIC (Staphylococcus aureus): 4.18 µM (≈ 8 µg/mL) | MIC [15]: 4.18 µM (≈ 8 µg/mL) | MIC [16]: 2.09 µM (≈ 4 µg/mL) | MIC (Ralstonia pickettii): 2.09 µM (≈ 4 µg/mL) | MIC (Pseudomonas fluorescens): 2.09 µM (≈ 4 µg/mL) | MIC [17]: 4.18 µM (≈ 8 µg/mL) | MIC [18]: ≥ 66.9 µM | MIC (Escherichia coli UB1005): 2.09 µM (≈ 4 µg/mL)

CC(C)C[C@H](NC(=O)CNC(=O)[C@H](Cc1cnc[nH]1)NC(=O)[C@H](Cc1cnc[nH]1)NC(=O)[C@H](CC(C)C)NC(=O)[C@H](CC(C)C)NC(=O)[C@H](C)NC(=O)[C@H](CC(N)=O)NC(=O)[C@H](CC(C)C)NC(=O)[C@@H](N)Cc1c[nH]c2ccccc12)C(=O)N[C@@H](CC(N)=O)C(=O)N[C@@H](CS)C(=O)N[C@@H](C)C(N)=O [WLNALLHHGLNCA]
MIC [19]: ≥ 43.8 µM | MIC [20]: ≥ 43.8 µM

CC[C@H](C)[C@H](NC(=O)[C@H](C)N)C(=O)N[C@@H](Cc1cnc[nH]1)C(=O)N[C@@H](CCCCN)C(=O)N[C@@H](CC(C)C)C(=O)N[C@@H](C)C(=O)N[C@@H](Cc1cnc[nH]1)C(=O)N[C@@H](CCCCN)C(=O)N[C@@H](CC(C)C)C(=O)N[C@@H](CC(C)C)C(=O)N1CCC[C@H]1C(=O)N[C@@H](CCCCN)C(=O)N[C@H](C(=O)N[C@@H](CC(C)C)C(=O)N[C@@H](CCCN=C(N)N)C(=O)N[C@@H](C)C(=O)N[C@H](C(=O)N[C@@H](CCCCN)C(=O)N[C@@H](CCCCN)C(=O)N[C@@H](CC(C)C)C(=O)N[C@@H](C)C(=O)N[C@@H](CC(N)=O)C(=O)O)C(C)C)[C@@H](C)O [AIHKLAHKLLPKTLRAVKKLAN]
MIC (Escherichia coli 55B5): 25 µM (≈ 61.6 µg/mL) | MIC (Salmonella typhimurium): 15.5 µM (≈ 38.2 µg/mL) | MIC (Pseudomonas aeruginosa): 20.5 µM (≈ 50.5 µg/mL) | MIC (Escherichia coli UB1005): 20.5 µM (≈ 50.5 µg/mL)

CC[C@H](C)[C@H](NC(=O)[C@H](C)NC(=O)[C@H](CCCCN)NC(=O)[C@H](CC(C)C)NC(=O)[C@H](C)NC(=O)[C@@H](NC(=O)[C@H](Cc1cnc[nH]1)NC(=O)[C@H](CC(C)C)NC(=O)[C@@H](NC(=O)[C@@H](NC(=O)[C@H](CCCCN)NC(=O)CNC(=O)[C@H](C)NC(=O)[C@H](CO)NC(=O)[C@H](CCCCN)NC(=O)[C@H](Cc1ccccc1)NC(=O)[C@@H](NC(=O)[C@H](CCCCN)NC(=O)[C@H](CC(C)C)NC(=O)[C@H](Cc1ccccc1)NC(=O)[C@H](CO)NC(=O)[C@H](CCCCN)NC(=O)[C@H](Cc1c[nH]c2ccccc12)NC(=O)[C@H](CCCCN)NC(C)=O)[C@@H](C)O)[C@@H](C)O)C(C)C)[C@@H](C)O)C(=O)N[C@@H](CO)C(=O)N[C@@H](CO)C(N)=O [KWKSFLKTFKSAGKTVLHTALKAISS]
MIC [1]: 3.51 µM (≈ 10.2 µg/mL) | MIC (Escherichia coli DC2): 0.869 µM (≈ 2.54 µg/mL) | MIC [2]: 3.51 µM (≈ 10.2 µg/mL) | MIC [3]: 8.82 µM (≈ 25.8 µg/mL) | MIC [4]: 1.11 µM (≈ 3.25 µg/mL) | MIC [5]: 1.74 µM (≈ 5.07 µg/mL) | MIC [6]: 0.869 µM (≈ 2.54 µg/mL) | MIC (Escherichia coli UB1005): 0.869 µM (≈ 2.54 µg/mL) | MIC (Bacillus subtilis C971): 0.695 µM (≈ 2.03 µg/mL) | MIC [7]: 0.695 µM (≈ 2.03 µg/mL) | MIC [8]: 2.22 µM (≈ 6.49 µg/mL) | MIC [9]: 17.6 µM (≈ 51.5 µg/mL)

CC(C)C[C@H](NC(=O)[C@H](CCCCN)NC(=O)[C@H](CCCCN)NC(=O)[C@H](C)NC(=O)[C@H](CC(C)C)NC(=O)[C@H](CCCCN)NC(=O)[C@H](CCCCN)NC(=O)[C@H](CC(C)C)NC(=O)[C@H](CCCCN)NC(=O)[C@H](CCCCN)NC(=O)[C@H](C)NC(=O)[C@H](CC(C)C)NC(=O)[C@H](CCCCN)NC(=O)[C@H](CCCCN)NC(=O)[C@H](C)NC(=O)[C@@H](N)Cc1ccccc1)C(=O)N[C@@H](C)C(=O)N[C@@H](CCCCN)C(=O)O [FAKKLAKKLKKLAKKLAK]
MIC [10]: 3.89 µM (≈ 8 µg/mL) | MIC [11]: 0.973 µM (≈ 2 µg/mL) | MIC [21]: 7.3 µM (≈ 15 µg/mL) | MIC [12]: 15.6 µM (≈ 32 µg/mL) | MIC (Candida albicans): 15.6 µM (≈ 32 µg/mL) | MIC (Pseudomonas aeruginosa): 7.78 µM (≈ 16 µg/mL) | MIC [13]: 3.89 µM (≈ 8 µg/mL) | MIC [14]: 3.89 µM (≈ 8 µg/mL) | MIC (Staphylococcus aureus): > 62.3 µM | MIC [22]: 7.3 µM (≈ 15 µg/mL) | MIC [15]: 3.89 µM (≈ 8 µg/mL) | MIC [16]: 0.486 µM (≈ 1 µg/mL) | MIC (Ralstonia pickettii): 1.95 µM (≈ 4 µg/mL) | MIC (Pseudomonas fluorescens): 3.89 µM (≈ 8 µg/mL) | MIC [17]: 3.89 µM (≈ 8 µg/mL) | MIC [18]: 3.89 µM (≈ 8 µg/mL) | MIC (Escherichia coli UB1005): 0.973 µM (≈ 2 µg/mL)
